Key:
[1] = target: Voltage-dependent N-type calcium channel subunit alpha-1B (Rattus norvegicus, UniProt Q02294); type: functional
[2] = target: T1, Corticotropin-releasing factor receptor 2 (Homo sapiens, UniProt Q13324)
T1 sequence (Q13324 whole entry): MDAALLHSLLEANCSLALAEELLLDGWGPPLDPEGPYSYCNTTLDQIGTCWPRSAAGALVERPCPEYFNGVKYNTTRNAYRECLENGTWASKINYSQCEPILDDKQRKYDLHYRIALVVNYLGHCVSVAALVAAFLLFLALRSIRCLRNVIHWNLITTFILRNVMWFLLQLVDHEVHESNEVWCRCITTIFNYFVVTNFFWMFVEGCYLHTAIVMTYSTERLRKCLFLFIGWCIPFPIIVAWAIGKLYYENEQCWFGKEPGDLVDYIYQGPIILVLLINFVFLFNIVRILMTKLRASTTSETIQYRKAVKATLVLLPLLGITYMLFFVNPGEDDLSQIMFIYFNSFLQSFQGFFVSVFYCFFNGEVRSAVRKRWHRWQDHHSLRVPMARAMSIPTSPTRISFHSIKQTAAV

[3] = target: T2, Endothelin receptor type B (Homo sapiens, UniProt P24530)
T2 sequence (P24530 whole entry): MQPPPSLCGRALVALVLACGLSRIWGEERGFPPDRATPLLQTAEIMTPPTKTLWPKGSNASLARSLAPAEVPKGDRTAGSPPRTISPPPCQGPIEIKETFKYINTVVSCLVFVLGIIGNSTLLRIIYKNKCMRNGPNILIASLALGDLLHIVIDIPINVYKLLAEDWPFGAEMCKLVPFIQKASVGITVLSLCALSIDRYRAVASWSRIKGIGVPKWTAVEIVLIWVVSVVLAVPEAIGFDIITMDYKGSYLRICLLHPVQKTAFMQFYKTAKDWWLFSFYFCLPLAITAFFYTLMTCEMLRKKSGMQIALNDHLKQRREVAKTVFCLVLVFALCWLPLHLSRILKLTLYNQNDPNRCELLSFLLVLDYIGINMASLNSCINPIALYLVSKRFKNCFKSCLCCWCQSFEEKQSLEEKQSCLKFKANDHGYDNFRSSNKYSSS

Glucagon receptor = Glucagon receptor (Homo sapiens, UniProt P47871)
[4] = target: 5-hydroxytryptamine receptor 2B (Homo sapiens, UniProt P41595)
[5] = target: T3, Neuropeptide Y receptor type 2 (Homo sapiens, UniProt P49146)
T3 sequence (P49146 whole entry): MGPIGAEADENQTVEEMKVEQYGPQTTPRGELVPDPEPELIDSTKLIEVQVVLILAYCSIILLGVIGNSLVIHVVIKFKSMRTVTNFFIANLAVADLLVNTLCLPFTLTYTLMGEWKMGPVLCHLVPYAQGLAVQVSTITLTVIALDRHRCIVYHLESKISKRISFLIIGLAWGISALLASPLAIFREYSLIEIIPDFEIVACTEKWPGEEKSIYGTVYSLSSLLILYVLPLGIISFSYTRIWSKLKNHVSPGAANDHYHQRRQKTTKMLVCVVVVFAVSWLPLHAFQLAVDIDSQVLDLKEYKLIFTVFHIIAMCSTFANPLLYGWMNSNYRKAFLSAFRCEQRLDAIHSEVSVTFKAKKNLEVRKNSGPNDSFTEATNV

[6] = target: Neurotensin receptor type 1 (Homo sapiens, UniProt P30989)
[7] = target: T4, Alpha-2A adrenergic receptor (Homo sapiens, UniProt P08913)
T4 sequence (P08913 whole entry): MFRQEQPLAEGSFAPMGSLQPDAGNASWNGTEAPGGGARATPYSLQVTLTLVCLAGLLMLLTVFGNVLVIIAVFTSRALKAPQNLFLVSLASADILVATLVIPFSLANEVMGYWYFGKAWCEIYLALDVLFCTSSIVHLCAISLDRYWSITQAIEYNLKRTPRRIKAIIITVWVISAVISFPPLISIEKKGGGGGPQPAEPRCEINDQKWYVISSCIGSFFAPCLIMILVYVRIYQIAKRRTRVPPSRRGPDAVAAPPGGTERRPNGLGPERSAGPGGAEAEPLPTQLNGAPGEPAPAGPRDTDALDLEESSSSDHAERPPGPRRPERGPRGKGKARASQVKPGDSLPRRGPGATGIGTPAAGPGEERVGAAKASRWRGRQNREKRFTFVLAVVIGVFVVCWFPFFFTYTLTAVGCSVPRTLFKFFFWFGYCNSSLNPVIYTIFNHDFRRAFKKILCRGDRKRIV

[8] = target: T5, 5-hydroxytryptamine receptor 1A (Homo sapiens, UniProt P08908)
T5 sequence (P08908 whole entry): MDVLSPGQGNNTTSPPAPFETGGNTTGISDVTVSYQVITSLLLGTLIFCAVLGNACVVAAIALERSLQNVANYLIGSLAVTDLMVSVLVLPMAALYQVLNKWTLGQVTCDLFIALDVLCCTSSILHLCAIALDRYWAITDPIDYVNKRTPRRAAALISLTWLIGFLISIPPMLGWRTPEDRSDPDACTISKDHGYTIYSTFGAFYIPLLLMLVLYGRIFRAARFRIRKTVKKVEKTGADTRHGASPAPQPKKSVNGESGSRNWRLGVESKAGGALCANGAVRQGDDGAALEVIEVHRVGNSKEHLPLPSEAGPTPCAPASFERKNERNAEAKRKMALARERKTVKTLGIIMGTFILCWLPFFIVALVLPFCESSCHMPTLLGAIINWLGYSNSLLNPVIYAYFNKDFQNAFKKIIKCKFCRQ

[9] = target: T6, Muscarinic acetylcholine receptor M2 (Homo sapiens, UniProt P08172)
T6 sequence (P08172 whole entry): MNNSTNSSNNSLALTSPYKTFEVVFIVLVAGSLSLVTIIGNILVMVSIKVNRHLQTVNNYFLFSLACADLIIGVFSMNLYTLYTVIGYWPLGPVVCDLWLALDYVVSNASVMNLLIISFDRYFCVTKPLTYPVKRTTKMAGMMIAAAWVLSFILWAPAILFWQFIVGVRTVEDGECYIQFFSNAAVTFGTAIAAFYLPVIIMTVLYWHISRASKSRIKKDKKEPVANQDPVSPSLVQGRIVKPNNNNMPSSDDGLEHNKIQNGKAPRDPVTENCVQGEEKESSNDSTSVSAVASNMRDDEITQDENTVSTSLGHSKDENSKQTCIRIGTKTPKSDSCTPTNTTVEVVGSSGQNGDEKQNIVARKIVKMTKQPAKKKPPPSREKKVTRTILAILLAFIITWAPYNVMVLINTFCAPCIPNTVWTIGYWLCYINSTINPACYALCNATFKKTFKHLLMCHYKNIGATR

[10] = target: 5-hydroxytryptamine receptor 2A (Homo sapiens, UniProt P28223)
Also: assay procedure not described here.

Sequence of Glucagon receptor (P47871 whole entry): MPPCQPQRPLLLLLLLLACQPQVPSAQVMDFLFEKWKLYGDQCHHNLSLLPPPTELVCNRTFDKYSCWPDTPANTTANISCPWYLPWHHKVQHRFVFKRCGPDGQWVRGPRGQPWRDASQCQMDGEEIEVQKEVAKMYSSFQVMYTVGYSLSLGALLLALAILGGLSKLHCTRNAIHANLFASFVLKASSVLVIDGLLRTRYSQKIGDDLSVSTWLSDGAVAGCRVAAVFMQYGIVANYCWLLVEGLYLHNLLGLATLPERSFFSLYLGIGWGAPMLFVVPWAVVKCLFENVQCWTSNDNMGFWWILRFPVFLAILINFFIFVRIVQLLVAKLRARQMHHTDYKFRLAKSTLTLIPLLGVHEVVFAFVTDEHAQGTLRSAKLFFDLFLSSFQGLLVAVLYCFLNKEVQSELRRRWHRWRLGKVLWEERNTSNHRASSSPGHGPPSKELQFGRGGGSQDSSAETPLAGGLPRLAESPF
Sequence of 5-hydroxytryptamine receptor 2A (P28223 whole entry): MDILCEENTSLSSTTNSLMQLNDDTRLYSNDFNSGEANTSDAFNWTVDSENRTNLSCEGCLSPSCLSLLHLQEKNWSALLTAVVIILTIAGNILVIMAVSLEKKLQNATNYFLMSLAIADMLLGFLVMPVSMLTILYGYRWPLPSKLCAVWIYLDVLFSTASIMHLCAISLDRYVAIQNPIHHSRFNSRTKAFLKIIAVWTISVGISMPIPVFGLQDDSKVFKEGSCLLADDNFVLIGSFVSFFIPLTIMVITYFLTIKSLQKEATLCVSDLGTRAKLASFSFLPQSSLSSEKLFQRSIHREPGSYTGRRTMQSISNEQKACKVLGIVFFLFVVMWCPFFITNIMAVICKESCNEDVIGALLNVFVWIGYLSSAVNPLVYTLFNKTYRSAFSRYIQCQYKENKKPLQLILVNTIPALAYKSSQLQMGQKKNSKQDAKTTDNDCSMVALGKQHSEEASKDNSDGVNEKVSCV
Sequence of 5-hydroxytryptamine receptor 2B (P41595 whole entry): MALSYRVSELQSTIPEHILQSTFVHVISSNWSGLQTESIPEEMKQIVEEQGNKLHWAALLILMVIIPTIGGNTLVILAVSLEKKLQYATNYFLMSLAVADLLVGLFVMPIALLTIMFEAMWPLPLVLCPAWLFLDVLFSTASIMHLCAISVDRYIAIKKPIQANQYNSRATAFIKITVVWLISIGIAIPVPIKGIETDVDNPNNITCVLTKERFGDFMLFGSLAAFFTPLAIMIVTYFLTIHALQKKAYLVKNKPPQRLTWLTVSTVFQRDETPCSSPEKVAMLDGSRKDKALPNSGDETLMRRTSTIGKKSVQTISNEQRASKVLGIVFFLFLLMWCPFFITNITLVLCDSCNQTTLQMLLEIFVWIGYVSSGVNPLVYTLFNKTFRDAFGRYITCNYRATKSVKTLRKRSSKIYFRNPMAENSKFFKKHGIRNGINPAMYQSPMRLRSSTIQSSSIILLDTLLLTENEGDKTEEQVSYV
Sequence of Neurotensin receptor type 1 (P30989 whole entry): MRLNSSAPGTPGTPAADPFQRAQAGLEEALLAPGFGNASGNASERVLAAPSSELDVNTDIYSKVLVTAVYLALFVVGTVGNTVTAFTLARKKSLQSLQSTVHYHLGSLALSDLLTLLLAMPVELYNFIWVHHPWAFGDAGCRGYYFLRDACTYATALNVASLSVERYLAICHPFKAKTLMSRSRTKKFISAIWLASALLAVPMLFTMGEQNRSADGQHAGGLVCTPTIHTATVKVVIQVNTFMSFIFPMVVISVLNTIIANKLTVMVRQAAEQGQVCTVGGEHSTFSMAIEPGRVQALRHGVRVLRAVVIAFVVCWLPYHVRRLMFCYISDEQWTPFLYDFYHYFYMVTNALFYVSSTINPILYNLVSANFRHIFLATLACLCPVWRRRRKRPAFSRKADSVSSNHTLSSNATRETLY
Sequence of Voltage-dependent N-type calcium channel subunit alpha-1B (Q02294 whole entry): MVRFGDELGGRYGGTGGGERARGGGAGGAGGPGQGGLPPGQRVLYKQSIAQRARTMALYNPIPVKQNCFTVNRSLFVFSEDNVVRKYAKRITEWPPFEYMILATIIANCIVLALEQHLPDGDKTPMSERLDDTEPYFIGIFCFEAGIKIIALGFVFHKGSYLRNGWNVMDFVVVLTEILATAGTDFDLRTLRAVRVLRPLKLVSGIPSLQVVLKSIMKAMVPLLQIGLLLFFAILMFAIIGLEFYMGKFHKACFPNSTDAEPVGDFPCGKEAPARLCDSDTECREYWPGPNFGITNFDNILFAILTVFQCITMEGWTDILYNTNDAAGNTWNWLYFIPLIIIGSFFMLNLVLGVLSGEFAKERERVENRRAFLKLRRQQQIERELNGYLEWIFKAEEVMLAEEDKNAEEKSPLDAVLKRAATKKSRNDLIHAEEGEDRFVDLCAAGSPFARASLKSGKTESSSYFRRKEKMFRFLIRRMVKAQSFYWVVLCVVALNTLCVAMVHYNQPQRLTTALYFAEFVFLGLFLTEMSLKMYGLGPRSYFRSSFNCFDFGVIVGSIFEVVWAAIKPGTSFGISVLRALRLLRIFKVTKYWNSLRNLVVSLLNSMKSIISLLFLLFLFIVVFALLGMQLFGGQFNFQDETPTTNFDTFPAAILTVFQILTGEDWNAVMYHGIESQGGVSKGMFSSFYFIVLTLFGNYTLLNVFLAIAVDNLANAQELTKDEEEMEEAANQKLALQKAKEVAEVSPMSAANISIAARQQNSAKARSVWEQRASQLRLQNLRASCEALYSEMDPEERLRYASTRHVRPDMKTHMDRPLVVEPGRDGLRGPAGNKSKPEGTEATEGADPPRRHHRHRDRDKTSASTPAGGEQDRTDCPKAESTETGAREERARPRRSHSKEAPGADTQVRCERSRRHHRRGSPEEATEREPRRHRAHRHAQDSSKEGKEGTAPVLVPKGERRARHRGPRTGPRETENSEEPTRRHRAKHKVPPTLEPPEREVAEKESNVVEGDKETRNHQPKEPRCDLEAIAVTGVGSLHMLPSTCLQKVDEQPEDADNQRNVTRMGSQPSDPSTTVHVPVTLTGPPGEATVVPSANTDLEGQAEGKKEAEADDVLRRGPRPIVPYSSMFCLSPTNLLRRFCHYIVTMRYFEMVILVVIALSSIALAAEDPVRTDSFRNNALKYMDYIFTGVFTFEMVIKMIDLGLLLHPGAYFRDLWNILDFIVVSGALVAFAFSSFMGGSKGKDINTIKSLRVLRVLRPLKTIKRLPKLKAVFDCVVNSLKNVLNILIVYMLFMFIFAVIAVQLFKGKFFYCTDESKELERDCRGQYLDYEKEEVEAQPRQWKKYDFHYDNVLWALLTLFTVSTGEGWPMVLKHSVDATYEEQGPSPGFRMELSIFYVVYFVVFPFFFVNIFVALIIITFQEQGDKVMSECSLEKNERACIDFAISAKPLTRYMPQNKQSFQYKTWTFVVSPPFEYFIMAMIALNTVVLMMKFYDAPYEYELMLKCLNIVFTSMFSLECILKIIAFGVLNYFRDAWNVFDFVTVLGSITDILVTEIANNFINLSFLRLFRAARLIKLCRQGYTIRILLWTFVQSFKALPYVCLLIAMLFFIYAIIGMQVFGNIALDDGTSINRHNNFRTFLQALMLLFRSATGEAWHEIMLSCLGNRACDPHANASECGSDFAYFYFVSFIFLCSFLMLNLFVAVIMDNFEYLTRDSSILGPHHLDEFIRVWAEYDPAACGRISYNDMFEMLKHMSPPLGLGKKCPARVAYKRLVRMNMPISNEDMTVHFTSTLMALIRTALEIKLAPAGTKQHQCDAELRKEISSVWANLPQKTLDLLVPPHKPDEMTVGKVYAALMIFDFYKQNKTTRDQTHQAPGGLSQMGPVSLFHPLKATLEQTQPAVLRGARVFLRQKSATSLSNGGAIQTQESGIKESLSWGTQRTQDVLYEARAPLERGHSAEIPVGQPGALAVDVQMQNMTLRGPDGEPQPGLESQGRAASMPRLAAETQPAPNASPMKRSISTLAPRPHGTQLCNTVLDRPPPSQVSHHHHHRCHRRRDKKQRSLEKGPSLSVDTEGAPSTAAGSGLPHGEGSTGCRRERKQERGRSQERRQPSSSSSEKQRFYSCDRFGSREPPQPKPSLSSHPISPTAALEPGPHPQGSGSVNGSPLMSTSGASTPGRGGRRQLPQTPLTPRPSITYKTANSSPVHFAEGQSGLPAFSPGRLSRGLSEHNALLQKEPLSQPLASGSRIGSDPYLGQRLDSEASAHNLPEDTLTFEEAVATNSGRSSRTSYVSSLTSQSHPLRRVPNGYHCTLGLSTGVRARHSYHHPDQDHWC

| Structure (SMILES) | AC50 [1] [µM] | AC50 [2] [µM] | AC50 [3] [µM] | AC50 (Glucagon receptor) [µM] | AC50 [4] [µM] | AC50 [5] [µM] | AC50 [6] [µM] | AC50 [7] [µM] | AC50 [8] [µM] | AC50 [9] [µM] | AC50 [10] [µM] |
| --- | --- | --- | --- | --- | --- | --- | --- | --- | --- | --- | --- |
| Cc1c(C(=O)Nc2ccc(N3C[C@@H](C)O[C@@H](C)C3)nc2)cccc1-c1ccc(OC(F)(F)F)cc1 [SONIDEGIB] | > 10 | > 30 | > 30 | > 30 | > 10 | > 30 | > 30 | > 10 | > 10 | > 10 | > 10 |
| Cc1ccc(-c2nc3ccc(C)cn3c2CC(=O)N(C)C)cc1 [ZOLPIDEM] | > 10 | > 30 | > 30 | > 30 | > 10 | > 30 | > 30 | > 10 | > 10 | > 10 | > 10 |

Reference: ChEMBL document CHEMBL5291721, “A preclinical secondary pharmacology resource illuminates target-adverse drug reaction associations of marketed drugs” (Nat Commun, 2023)
